From article PMC7614683, “A small molecule PI3Kα activator for cardioprotection and neuroregeneration” (Nature, 2023) come the findings set out here.

The test system of one test is PI3Kα-KO A549 cells. Put plainly: TIRF microscopy of PIP3 reporter, PI3Kα-KO A549. The test is classed as cell-based, human. From the text:
Generation of pooled PIK3CA-null A549 cells was outsourced to Synthego Corporation. Briefly, the PIK3CA gene was targeted with synthetic ribonucleoprotein (RNP) complexes including the following single guide RNA (sgRNA) sequence: 5’-[…]-3’. This sequence is located within PIK3CA exon 3 and covers the coding sequence preceding the p110α RAS binding domain, with the Cas9 cut site corresponding to amino acids 156/157 of p110α). In parallel, control cultures were exposed to the Cas9 protein without sgRNA, henceforth referred to as “WT cultures”. Single-cell clones were established from both WT and targeted cultures by limiting dilution, thereby ensuring seeding of maximum 1 cell per well of a 96-well plate. To promote recovery, subcloned cells in 96-wells were cultured in a 1:1 mixture of standard A549 complete medium and conditioned medium. Conditioned medium was prepared from WT cultures 2 days post-passaging by centrifuging the medium at 1000g for 10 min, followed by 0.22 μm PES filtration and storage at 4°C (-80°C for storage exceeding 2 weeks). The medium was replenished every 2-3 days, as gently as possible to prevent cells from dislodging. Once cells reached sub-confluence, they were expanded to 24-well plates and 25 cm[2] flasks, followed by genotyping and cell banking. […]

The next test deals with PI3Kα-WT MEFs. The experiment in a line: pAKT S473 western blot, PI3Kα-WT MEFs. The class given is cell-based. Particulars: Mus musculus, 0.25 h; 15 min; read-out: EC50 of pAKT^S473 induction. How it is done: Unless otherwise indicated, western blotting was performed with ECL detection. For time course studies, A549 cells were seeded at 250,000 cells per well in 6-well plates in RPMI (10% FBS + 1 mM Na-Pyruvate + 1% P/S) and allowed to adhere overnight. The next day they were serum-starved for 4 h prior to treatment with 100 nM insulin or 5 μM 1938, for the indicated time (5 min to 48 h) at 37°C, 5% CO2. For 1938 titration assays in MEFs, cells were seeded at 150,000 cells per well in 6-well plates and allowed to adhere overnight. The next day they were serum-starved for 4 h prior to treatment with insulin (1 μM), 1938 (0.2 to 30 μM, final DMSO concentration of 1.5%) or inhibitors (final DMSO concentration of ≤1.5%) for 15 min at 37°C, 5% CO2. Cells were washed twice with cold PBS and lysed using cold RIPA buffer (25 mM Tris.HCl pH 7.6, 150 mM NaCl, 1% NP-40, 1% sodium deoxycholate, 0.1% SDS supplemented with protease/phosphatase inhibitor cocktail from Merck). To remove cell debris, homogenates were spun at 13,000 rpm for 15 min at 4°C and the supernatant fraction recovered. Protein concentration was determined by colorimetric assay (BCA assay, Promega). […]

A word on the EC50: it is the concentration giving half of the maximal effect. As to `CCN1CCN(c2ccc(Nc3cc(Nc4cccc5c4N(C(C)=O)CC5)ccn3)cc2)CC1` [Compound 1938], the “plasma membrane PIP3 (biosensor)” value in the test on PI3Kα-KO A549 cells is reported as “not seen”. Also, the EC50 in the test on PI3Kα-WT MEFs is 2 to 4 µM.
